According to ChEMBL document CHEMBL3352668, “Synthesis and antibacterial evaluation of new, unsymmetrical triaryl bisamidine compounds” (Bioorg Med Chem Lett, 2014):
≈ marks a conversion by molar mass, not a printed value.

Experiments:
[1] = test system: Klebsiella pneumoniae; test: Antimicrobial activity against Klebsiella pneumoniae 13882 by CLSI method; assay type: functional; settings: Klebsiella pneumoniae, 13882; read-out: MIC
[2] = test system: Escherichia coli; test: Antimicrobial activity against TolC+ Escherichia coli 700 by CLSI method; assay type: functional; settings: Escherichia coli, 700; read-out: MIC
[3] = test system: Escherichia coli; test: Antimicrobial activity against TolC-deficient Escherichia coli by CLSI method; assay type: functional; settings: Escherichia coli; read-out: MIC
[4] = test system: Bacillus subtilis; test: Antimicrobial activity against Bacillus subtilis BD54 by CLSI method; assay type: functional; settings: Bacillus subtilis, BD54; read-out: MIC
[5] = test system: Enterococcus faecalis; test: Antimicrobial activity against vancomycin-resistant Enterococcus faecalis ATCC 51575 by CLSI method; assay type: functional; settings: Enterococcus faecalis, ATCC 51575; read-out: MIC
[6] = test system: Bacillus anthracis; test: Antimicrobial activity against Bacillus anthracis Sterne by CLSI method; assay type: functional; settings: Bacillus anthracis, Sterne; read-out: MIC
[7] = test system: Staphylococcus aureus; test: Antimicrobial activity against methicillin-resistant Staphylococcus aureus 1094 by CLSI method; assay type: functional; settings: Staphylococcus aureus, 1094; read-out: MIC
[8] = test system: Pseudomonas aeruginosa; test: Antimicrobial activity against Pseudomonas aeruginosa PAO1 by CLSI method; assay type: functional; settings: Pseudomonas aeruginosa, PAO1; read-out: MIC
[9] = Cytotoxicity against human HeLa cells by MTS assay; assay type: cell-based; settings: HeLa cells
[10] = test system: Pseudomonas aeruginosa; test: Antimicrobial activity against mexAB-oprM deficient Pseudomonas aeruginosa PAO1 harboring by CLSI method; assay type: functional

Row | Compound | MIC [1] [µg/mL] | MIC [2] [µg/mL] | MIC [3] [µg/mL] | MIC [4] [µg/mL] | MIC [5] [µg/mL] | MIC [6] [µg/mL] | MIC [7] [µg/mL] | MIC [8] [µg/mL] | CC50 [9] [µg/mL] | MIC [10] [µg/mL]
1 | c1cc2cc(-c3ccc(-c4cnc(N5CCCC5)nc4)cc3)[nH]c2cc1C1=NCCCN1 | > 80 | > 80 | 0.63 (≈ 1.49 µM) | 0.63 (≈ 1.49 µM) | 5 (≈ 11.8 µM) | 0.63 (≈ 1.49 µM) | 2.5 (≈ 5.92 µM) | > 80 | 5.7 (≈ 13.5 µM) | 
2 | OC1CN=C(c2ccc3cc(-c4ccc(-c5cc6ccc(C7=NCC(O)CN7)cc6o5)cn4)[nH]c3c2)NC1 (stereo not given) | 8.8 (≈ 17.4 µM) | 80 (≈ 158 µM) | 0.63 (≈ 1.24 µM) | 3.75 (≈ 7.4 µM) | 5 (≈ 9.87 µM) | 1.09 (≈ 2.15 µM) | 2.5 (≈ 4.94 µM) | 25 (≈ 49.4 µM) | 16.7 (≈ 33 µM) | 
3 | CC1CNC(c2ccc3cc(-c4ccc(-c5cnc(N6CCCC6)nc5)cc4)[nH]c3c2)=N1 (stereo not given) | > 80 | > 80 | 40 (≈ 94.7 µM) | 40 (≈ 94.7 µM) | > 80 | 40 (≈ 94.7 µM) | 40 (≈ 94.7 µM) | > 80 | 1.1 (≈ 2.6 µM) | 
4 | c1cc2cc(-c3ccc(-c4cc5ccc(C6=NCCCN6)cc5o4)cc3)[nH]c2cc1C1=NCCCN1 | 0.55 (≈ 1.16 µM) | 0.63 (≈ 1.33 µM) | 0.16 (≈ 0.338 µM) | 0.14 (≈ 0.296 µM) | 0.39 (≈ 0.824 µM) | 5 (≈ 10.6 µM) | 0.1 (≈ 0.211 µM) | 0.63 (≈ 1.33 µM) | 26 (≈ 54.9 µM) | 0.47 (≈ 0.992 µM)
5 | c1cc2oc(-c3ccc(-c4cc5ccc(C6=NCCCN6)cc5[nH]4)cc3)cc2cc1C1=NCCCN1 | 1.25 (≈ 2.64 µM) | 0.63 (≈ 1.33 µM) | 0.39 (≈ 0.824 µM) | 0.08 (≈ 0.169 µM) | 0.08 (≈ 0.169 µM) | 0.08 (≈ 0.169 µM) | 0.31 (≈ 0.655 µM) | 2.5 (≈ 5.28 µM) | 8.5 (≈ 17.9 µM) | 2.5 (≈ 5.28 µM)
6 | Cc1c(-c2ccc(-c3cc4ccc(C5=NCCCN5)cc4o3)cc2)[nH]c2cccc(C#N)c12 | 20 (≈ 46.5 µM) | 20 (≈ 46.5 µM) | 10 (≈ 23.2 µM) | 2.5 (≈ 5.81 µM) | 5 (≈ 11.6 µM) | 2.5 (≈ 5.81 µM) | 5 (≈ 11.6 µM) | 40 (≈ 92.9 µM) |  | 
7 | c1cc2cc(-c3ccc(-c4cc5ccc(C6=NCCCN6)cc5o4)s3)[nH]c2cc1C1=NCCCN1 | 2.5 (≈ 5.21 µM) | 0.63 (≈ 1.31 µM) | 0.31 (≈ 0.646 µM) | 0.08 (≈ 0.167 µM) | 0.31 (≈ 0.646 µM) | 0.16 (≈ 0.334 µM) | 0.31 (≈ 0.646 µM) | 10 (≈ 20.9 µM) | 8.7 (≈ 18.1 µM) | 
8 | OC1CN=C(c2ccc3cc(-c4ccc(-c5cc6ccc(C7=NCC(O)CN7)cc6o5)s4)[nH]c3c2)NC1 (stereo not given) | 15 (≈ 29.3 µM) | 5 (≈ 9.77 µM) | 0.47 (≈ 0.919 µM) | 0.43 (≈ 0.84 µM) | 2.5 (≈ 4.89 µM) | 1.25 (≈ 2.44 µM) | 1.88 (≈ 3.67 µM) | 40 (≈ 78.2 µM) | 12.7 (≈ 24.8 µM) | 
9 | Fc1cc(-c2cc3ccc(C4=NCCCN4)cc3[nH]2)ccc1-c1cc2ccc(C3=NCCCN3)cc2o1 | 0.63 (≈ 1.28 µM) | 0.63 (≈ 1.28 µM) | 0.31 (≈ 0.631 µM) | 0.08 (≈ 0.163 µM) | 0.16 (≈ 0.325 µM) | 0.08 (≈ 0.163 µM) | 0.16 (≈ 0.325 µM) | 2.5 (≈ 5.09 µM) | 14.3 (≈ 29.1 µM) | 
10 | CC1CNC(c2ccc3cc(-c4ccc(-c5cc6ccc(C7=NC(C)CN7)cc6o5)s4)[nH]c3c2)=N1 (stereo not given) | 20 (≈ 41.7 µM) | 1.25 (≈ 2.61 µM) | 0.63 (≈ 1.31 µM) | 0.31 (≈ 0.646 µM) | 0.63 (≈ 1.31 µM) | 0.52 (≈ 1.08 µM) | 1.04 (≈ 2.17 µM) | 26.7 (≈ 55.7 µM) | 14.5 (≈ 30.2 µM) | 
11 | CC1CN=C(c2ccc3cc(-c4ccc(-c5cc6ccc(C7=NCC(C)CN7)cc6o5)cn4)[nH]c3c2)NC1 (stereo not given) | 2.5 (≈ 4.97 µM) | 1.88 (≈ 3.74 µM) | 0.27 (≈ 0.537 µM) | 0.08 (≈ 0.159 µM) | 0.63 (≈ 1.25 µM) | 0.63 (≈ 1.25 µM) | 0.31 (≈ 0.617 µM) | 5 (≈ 9.95 µM) | 2.2 (≈ 4.38 µM) | 
